Assay results reported in PubChem BioAssay AID192 (DTP/NCI, 2004).
Where “and” joins values, the source holds several entries; their conditions need not be identical. Equal values may be shown once. Toxic doses and inconclusive results are not listed. How the source made its calls: active means survival T/C of 150% or more; inactive means T/C below 125% in these data.

Tested on: BDF1 mice, B16 melanoma ip, median survival T/C
Experiment: NCI In Vivo Anticancer Drug Screen. Data for tumor model B16 Melanoma (intraperitoneal) in B6D2F1 (BDF1) mice
Details: endpoint: median survival time, higher = longer survival
In short: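 Vehicle-treated animals serve as the reference (C); treated animals (T) are scored for survival or tumor size after tumor transplantation.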

[1] = dose: 50.0 mg/kg/injection, schedule: Q01DX009 (ip), vehicle: saline
[2] = dose: 100.0 mg/kg/injection, schedule: Q01DX009 (ip), vehicle: saline
[3] = dose: 200.0 mg/kg/injection, schedule: Q01DX009 (ip), vehicle: saline
[4] = dose: 400.0 mg/kg/injection, schedule: Q01DX009 (ip), vehicle: saline
[5] = dose: 6.25 mg/kg/injection, schedule: Q01DX009 (ip), vehicle: saline
[6] = dose: 12.5 mg/kg/injection, schedule: Q01DX009 (ip), vehicle: saline
[7] = dose: 25.0 mg/kg/injection, schedule: Q01DX009 (ip), vehicle: saline

Measured: T/C

c1ccc([C@H]2CN3CCSC3=N2)cc1
inactive: dose: 0.15 mg/kg/injection, schedule: Q01DX009 (ip), vehicle: saline 97 % of control | dose: 0.31 mg/kg/injection, schedule: Q01DX009 (ip), vehicle: saline 89 % of control and 102 % of control | dose: 0.63 mg/kg/injection, schedule: Q01DX009 (ip), vehicle: saline 102 % of control | dose: 1.25 mg/kg/injection, schedule: Q01DX009 (ip), vehicle: saline 102 % of control | dose: 2.5 mg/kg/injection, schedule: Q01DX009 (ip), vehicle: saline 103 % of control | dose: 5.0 mg/kg/injection, schedule: Q01DX009 (ip), vehicle: saline 89 % of control | dose: 10.0 mg/kg/injection, schedule: Q01DX009 (ip), vehicle: saline 89 % of control | dose: 20.0 mg/kg/injection, schedule: Q01DX009 (ip), vehicle: saline 107 % of control | dose: 40.0 mg/kg/injection, schedule: Q01DX009 (ip), vehicle: saline 86 % of control

O=C1OC(C(O)CO)C(O)=C1O (stereo not given)
inactive: dose: 0.12 mg/kg/injection, schedule: Q01DX009 (ip), vehicle: saline 100 % of control | dose: 0.25 mg/kg/injection, schedule: Q01DX009 (ip), vehicle: saline 110 % of control | dose: 0.5 mg/kg/injection, schedule: Q01DX009 (ip), vehicle: saline 105 % of control | dose: 1.0 mg/kg/injection, schedule: Q01DX001 (ip), vehicle: saline 102 % of control | dose: 1.0 mg/kg/injection, schedule: Q01DX009 (ip), vehicle: saline 110 % of control | dose: 2.0 mg/kg/injection, schedule: Q01DX001 (ip), vehicle: saline 100 % of control | dose: 2.0 mg/kg/injection, schedule: Q01DX009 (ip), vehicle: saline 110 % of control | dose: 4.0 mg/kg/injection, schedule: Q01DX001 (ip), vehicle: saline 95 % of control | dose: 4.0 mg/kg/injection, schedule: Q01DX009 (ip), vehicle: saline 105 % of control | dose: 8.0 mg/kg/injection, schedule: Q01DX001 (ip), vehicle: saline 102 % of control | dose: 8.0 mg/kg/injection, schedule: Q01DX009 (ip), vehicle: saline 110 % of control | dose: 16.0 mg/kg/injection, schedule: Q01DX001 (ip), vehicle: saline 100 % of control | dose: 16.0 mg/kg/injection, schedule: Q01DX009 (ip), vehicle: saline 95 % of control | dose: 32.0 mg/kg/injection, schedule: Q01DX001 (ip), vehicle: saline 100 % of control | dose: 64.0 mg/kg/injection, schedule: Q01DX001 (ip), vehicle: saline 97 % of control

NC(CCSCc1ccccc1)C(=O)O (stereo not given)
inactive: dose: 100.0 mg/kg/injection, schedule: Q01DX009 (ip), vehicle: saline with Tween-80 105 % of control | dose: 200.0 mg/kg/injection, schedule: Q01DX009 (ip), vehicle: saline with Tween-80 96 % of control | dose: 400.0 mg/kg/injection, schedule: Q01DX009 (ip), vehicle: saline with Tween-80 87 % of control

CC(=O)OCc1cccnc1
inactive: [1] 97 % of control | [2] 101 % of control | [3] 106 % of control | [4] 107 % of control

CNC(=O)ON=C1CCC(CC2CCCCC2)CC1 (stereo not given)
inactive: dose: 25.0 mg/kg/injection, schedule: Q01DX009 (ip), vehicle: Klucel (hydroxypropylcellulose) (HPC) 93 % of control | dose: 50.0 mg/kg/injection, schedule: Q01DX009 (ip), vehicle: Klucel (hydroxypropylcellulose) (HPC) 100 % of control | dose: 100.0 mg/kg/injection, schedule: Q01DX009 (ip), vehicle: Klucel (hydroxypropylcellulose) (HPC) 103 % of control

CN(C)CCC=C1c2ccccc2C=Cc2ccccc21
inactive: dose: 0.39 mg/kg/injection, schedule: Q01DX009 (ip), vehicle: saline 96 % of control | dose: 0.78 mg/kg/injection, schedule: Q01DX009 (ip), vehicle: saline 102 % of control | dose: 1.56 mg/kg/injection, schedule: Q01DX009 (ip), vehicle: saline 98 % of control and 97 % of control | dose: 3.12 mg/kg/injection, schedule: Q01DX009 (ip), vehicle: saline 96 % of control and 100 % of control | [5] 86 % of control and 123 % of control and 93 % of control | [6] 111 % of control | [7] 118 % of control and 90 % of control | [1] 101 % of control

CCOc1cc[n+]([O-])cc1
inactive: [1] 103 % of control | [2] 104 % of control | [3] 102 % of control

CN1C2C=C(c3ccccc3)C(Br)C1CC2 (stereo not given)
inactive: dose: 20.0 mg/kg/injection, schedule: Q01DX009 (ip), vehicle: saline with Tween-80 98 % of control | dose: 20.0 mg/kg/injection, schedule: Q04DX003 (ip), vehicle: saline with Tween-80 100 % of control | dose: 40.0 mg/kg/injection, schedule: Q01DX009 (ip), vehicle: saline with Tween-80 91 % of control | dose: 40.0 mg/kg/injection, schedule: Q04DX003 (ip), vehicle: saline with Tween-80 104 % of control | dose: 80.0 mg/kg/injection, schedule: Q04DX003 (ip), vehicle: saline with Tween-80 88 % of control

CCC1(O)CC(OC2CC(N(C)C)C(OC3CC4OC5CC(=O)C(C)OC5OC4C(C)O3)C(C)O2)c2c(cc3c(c2O)C(=O)c2c(O)ccc(O)c2C3=O)C1C(=O)OC (stereo not given)
inactive: dose: 0.75 mg/kg/injection, schedule: Q01DX009 (ip), vehicle: saline 88 % of control | dose: 0.75 mg/kg/injection, schedule: Q04DX003 (ip), vehicle: saline 97 % of control | dose: 1.5 mg/kg/injection, schedule: Q01DX009 (ip), vehicle: saline 105 % of control | dose: 1.5 mg/kg/injection, schedule: Q04DX003 (ip), vehicle: saline 88 % of control | dose: 3.0 mg/kg/injection, schedule: Q04DX003 (ip), vehicle: saline 97 % of control

Cc1ccc(C)n1-c1ccccc1
inactive: dose: 100.0 mg/kg/injection, schedule: Q01DX009 (ip), vehicle: saline + alcohol 101 % of control | dose: 200.0 mg/kg/injection, schedule: Q01DX009 (ip), vehicle: saline + alcohol 99 % of control

Cc1[nH]c(=O)[nH]c(=O)c1NC(=O)c1ccccc1[N+](=O)[O-]
inactive: dose: 12.5 mg/kg/injection, schedule: Q01DX009 (ip), vehicle: saline with Tween-80 100 % of control | dose: 25.0 mg/kg/injection, schedule: Q01DX009 (ip), vehicle: saline with Tween-80 102 % of control | dose: 50.0 mg/kg/injection, schedule: Q01DX009 (ip), vehicle: saline with Tween-80 102 % of control

C1CC[N-]CC1.C1CC[N-]CC1.N#C[S-].N#C[S-].[Cu]
inactive: dose: 2.5 mg/kg/injection, schedule: Q04DX003 (ip), vehicle: saline with Tween-80 110 % of control | dose: 5.0 mg/kg/injection, schedule: Q04DX003 (ip), vehicle: saline with Tween-80 93 % of control | dose: 10.0 mg/kg/injection, schedule: Q04DX003 (ip), vehicle: saline with Tween-80 93 % of control

Cc1cc(C)c(-c2c(C)cc(C)c(N)c2C)c(C)c1N
inactive: dose: 75.0 mg/kg/injection, schedule: Q04DX003 (ip), vehicle: Klucel (hydroxypropylcellulose) (HPC) 91 % of control

CC(=O)OC1C2CCC3C(C)(O)C4CC(O)C(C)(C)C4(O)C(O)CC13CC2(C)O (stereo not given)
inactive: dose: 2.0 micrograms/kg/injection, schedule: Q01DX009 (ip), vehicle: Klucel (hydroxypropylcellulose) (HPC) 101 % of control | dose: 4.0 micrograms/kg/injection, schedule: Q01DX009 (ip), vehicle: Klucel (hydroxypropylcellulose) (HPC) 92 % of control | dose: 8.0 micrograms/kg/injection, schedule: Q01DX009 (ip), vehicle: Klucel (hydroxypropylcellulose) (HPC) 99 % of control | dose: 16.0 micrograms/kg/injection, schedule: Q01DX009 (ip), vehicle: Klucel (hydroxypropylcellulose) (HPC) 98 % of control

NC1CONC1=O (stereo not given)
inactive: [5] 109 % of control | [6] 88 % of control | [7] 109 % of control | [1] 102 % of control | [2] 105 % of control | [3] 100 % of control | [4] 91 % of control
